Literature values, collected in patent publication US8841262B2, “Agent for inhibiting peritoneal membrane thickening” (CCI Corporation, priority 2009, dated 2014).

Experiments:
[1] = test system: vascular endothelial growth factor (VEGF); conditions: administration of TNP-470, reported in Non-Patent Literature 1
[2] = test system: peritoneal membrane thickening; conditions: ganciclovir infused into the abdominal cavity, in 2 weeks; reported in Non-Patent Literature 3

SMILES	myofibroblastic cell proliferation [1]	neoangiogenesis [1]	peritoneal membrane thickening after chlorhexidine [2]
CO[C@@H]1[C@H](OC(=O)NC(=O)CCl)CC[C@]2(CO2)[C@H]1[C@@]1(C)O[C@@H]1CC=C(C)C [TNP-470]	suppression	inhibition	–
Nc1nc(O)c2ncn(COC(CO)CO)c2n1 [ganciclovir]	–	–	alleviated
